Measured values as given in ChEMBL document CHEMBL3272046, “Adrenerigic agents. 7.1 Synthesis and beta-adrenergic agonist activity of several 2-pyridylethanolamines” (J Med Chem, 1977).

How the values were obtained:
Type in all cases: tissue-based
[1] = organism: Cavia porcellus; assay: Agonist activity at beta-adrenergic receptor in guinea pig tracheal tissue assessed as bronchodilator activity; settings: Trachea
[2] = organism: Cavia porcellus; assay: Agonist activity at beta-adrenergic receptor in guinea pig right atrial muscle assessed as rate of contraction of spontaneously beating atria; settings: Cardiac atrium
[3] = organism: Cavia porcellus; assay: Agonist activity at beta-adrenergic receptor in guinea pig right atrial muscle assessed as rate of contraction of spontaneously beating atria at 9.9 x 10^-5 M; settings: Cardiac atrium
[4] = organism: Cavia porcellus; assay: Selectivity ratio of ED25 for beta-adrenergic receptor in guinea pig right atrial muscle to ED50 for beta-adrenergic receptor in guinea pig tracheal tissue; settings: Cardiac atrium
[5] = organism: Cavia porcellus; assay: Intrinsic activity at beta-adrenergic receptor in guinea pig right atrial muscle assessed as rate of contraction of spontaneously beating atria relative to isoproterenol; settings: Cardiac atrium
[6] = organism: Cavia porcellus; assay: Agonist activity at beta-adrenergic receptor in guinea pig right atrial muscle assessed as rate of contraction of spontaneously beating atria at 1.7 x 10^-5 M; settings: Cardiac atrium

Structure (SMILES)	ED50 [1]	ED25 [2]	Activity [3] [%]	Selectivity ratio [4]	Intrinsic activity [5]	Activity [6] [%]
CC(C)(C)NCC(O)c1ccc(O)c(CS(C)(=O)=O)n1 (stereo not given)	2.9 ×10⁻⁸ M	9.9 ×10⁻⁵ M	13	> 3410	–	–
Cc1nc(C(O)CNC(C)(C)C)ccc1O (stereo not given)	2.8 ×10⁻⁷ M	1 ×10⁻⁵ M	–	36	0.4	–
CC(C)(C)NCC(O)c1ccc(O)c(CO)n1 (stereo not given)	2.8 ×10⁻⁹ M	1.2 ×10⁻⁷ M	–	43	0.8	–
CC(C)NCC(O)c1ccc(O)cc1 (stereo not given)	1.1 ×10⁻⁷ M	7.7 ×10⁻⁸ M	–	0.7	0.8	–
CC(C)(C)NCC(O)c1ccc(O)c(CS(C)(=O)=O)c1 (stereo not given)	1.7 ×10⁻⁸ M	2.8 ×10⁻⁵ M	–	1650	0.3	–
CC(C)(C)NCC(O)c1ccc(O)c(CO)c1 (stereo not given)	1.1 ×10⁻⁸ M	3.1 ×10⁻⁷ M	–	28	0.7	–
CC(C)NCC(O)c1ccc(O)c(O)c1 (stereo not given)	7.1 ×10⁻⁹ M	3.4 ×10⁻⁹ M	–	–	–	–
CC(C)(C)NCC(O)c1ccc(O)cn1 (stereo not given)	3.1 ×10⁻⁷ M	1.7 ×10⁻⁵ M	–	> 182	–	7
